Data as given in ChEMBL document CHEMBL1127774, “2,3,6-Substituted quinazolinones as angiotensin II receptor antagonists” (Bioorg Med Chem Lett, 1994).

The compounds below were run against T1, Type-1 angiotensin II receptor (Bos taurus, UniProt P25104) (assay: Concentration required for 50% inhibition of binding against Angiotensin II receptor in the bovine adrenal cortex tissue).
T1 sequence (P25104 whole entry): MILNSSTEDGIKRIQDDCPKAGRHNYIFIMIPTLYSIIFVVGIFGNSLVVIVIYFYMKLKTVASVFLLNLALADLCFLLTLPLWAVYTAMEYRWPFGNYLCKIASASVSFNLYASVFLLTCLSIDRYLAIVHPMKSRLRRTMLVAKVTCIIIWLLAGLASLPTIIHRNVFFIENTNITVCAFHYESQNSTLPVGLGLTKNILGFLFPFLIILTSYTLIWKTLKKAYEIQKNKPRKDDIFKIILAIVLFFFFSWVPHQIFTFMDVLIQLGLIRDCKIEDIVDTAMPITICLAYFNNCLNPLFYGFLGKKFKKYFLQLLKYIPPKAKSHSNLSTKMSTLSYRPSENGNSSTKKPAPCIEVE
Format: tissue-based

Row | IC50 [nM] | SMILES
1 | 130 | CCCCc1nc2ccc(COc3ccccn3)cc2c(=O)n1Cc1ccc(-c2ccccc2-c2nn[nH]n2)cc1
2 | 130 | CCCCc1nc2ccc(COc3ccccc3)cc2c(=O)n1Cc1ccc(-c2ccccc2-c2nnn[nH]2)cc1
3 | 330 | CCCCc1nc(Cl)c(CO)n1Cc1ccc(-c2ccccc2-c2nn[nH]n2)cc1 [LOSARTAN]

These compounds were tested against T2, Angiotensin II receptor (Rattus norvegicus, UniProt P29089+P25095+P35351) (assay: Concentration required for 50% inhibition of binding against Angiotensin II receptor in the rat adrenal cortex tissue).
T2 sequence (P29089 whole entry): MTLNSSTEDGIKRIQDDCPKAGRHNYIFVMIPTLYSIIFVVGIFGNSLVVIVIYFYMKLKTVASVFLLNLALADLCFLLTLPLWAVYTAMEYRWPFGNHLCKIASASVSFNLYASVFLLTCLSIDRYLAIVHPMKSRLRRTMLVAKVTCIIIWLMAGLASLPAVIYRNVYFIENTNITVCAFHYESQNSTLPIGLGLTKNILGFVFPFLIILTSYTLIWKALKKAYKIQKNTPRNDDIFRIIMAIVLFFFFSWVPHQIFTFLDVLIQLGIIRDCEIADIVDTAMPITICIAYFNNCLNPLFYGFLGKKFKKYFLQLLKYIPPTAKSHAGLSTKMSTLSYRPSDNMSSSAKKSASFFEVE
T2 sequence (P25095 whole entry): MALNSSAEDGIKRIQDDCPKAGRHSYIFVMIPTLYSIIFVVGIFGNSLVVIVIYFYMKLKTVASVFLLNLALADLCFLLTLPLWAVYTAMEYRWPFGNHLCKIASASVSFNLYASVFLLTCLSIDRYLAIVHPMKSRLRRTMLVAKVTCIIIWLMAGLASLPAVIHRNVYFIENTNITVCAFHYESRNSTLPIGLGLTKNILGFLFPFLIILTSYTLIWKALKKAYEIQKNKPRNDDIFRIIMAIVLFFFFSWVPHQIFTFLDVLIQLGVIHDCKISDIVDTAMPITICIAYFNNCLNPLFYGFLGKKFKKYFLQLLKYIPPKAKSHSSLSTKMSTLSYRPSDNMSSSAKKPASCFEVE
T2 sequence (P35351 whole entry): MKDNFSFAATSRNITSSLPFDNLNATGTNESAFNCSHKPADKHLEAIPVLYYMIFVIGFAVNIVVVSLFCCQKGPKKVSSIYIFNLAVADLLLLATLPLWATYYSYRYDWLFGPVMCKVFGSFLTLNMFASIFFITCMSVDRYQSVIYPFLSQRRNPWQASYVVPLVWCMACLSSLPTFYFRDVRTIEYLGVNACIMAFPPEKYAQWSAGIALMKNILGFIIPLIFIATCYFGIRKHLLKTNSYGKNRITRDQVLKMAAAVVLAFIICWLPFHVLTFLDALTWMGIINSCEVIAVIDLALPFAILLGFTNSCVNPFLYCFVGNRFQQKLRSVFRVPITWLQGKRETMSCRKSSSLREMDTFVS
Format: tissue-based

Row | SMILES | IC50 [nM]
4 | CCCCc1nc2ccc(C(C)OC)cc2c(=O)n1Cc1ccc(-c2ccccc2-c2nn[nH]n2)cc1 (centres undefined) | 7
5 | CCCCc1nc2ccc(C(C)N)cc2c(=O)n1Cc1ccc(-c2ccccc2-c2nn[nH]n2)cc1 (centres undefined) | 14
6 | CCCCc1nc2ccc(C(O)CO)cc2c(=O)n1Cc1ccc(-c2ccccc2-c2nn[nH]n2)cc1 (centres undefined) | 1000
7 | CCCCc1nc2ccc(C(OC)c3ccccc3)cc2c(=O)n1Cc1ccc(-c2ccccc2-c2nn[nH]n2)cc1 (centres undefined) | 9
8 | CCCCc1nc2ccc(CN)cc2c(=O)n1Cc1ccc(-c2ccccc2-c2nn[nH]n2)cc1 | 15
9 | CCCCc1nc2ccc(C(C)NC(C)=O)cc2c(=O)n1Cc1ccc(-c2ccccc2-c2nn[nH]n2)cc1 (centres undefined) | 6
10 | CCCCc1nc2ccc(C(CC)OC)cc2c(=O)n1Cc1ccc(-c2ccccc2-c2nn[nH]n2)cc1 (centres undefined) | 5
11 | CCCCc1nc2ccc(COC)cc2c(=O)n1Cc1ccc(-c2ccccc2-c2nn[nH]n2)cc1 | 18
12 | CCCCc1nc2ccc(C(O)CC)cc2c(=O)n1Cc1ccc(-c2ccccc2-c2nn[nH]n2)cc1 (centres undefined) | 12

The next lines start with the values.

Row | IC50 [nM] | SMILES
13 | 6 | CCCCc1nc2ccc(C(C)(C)OC)cc2c(=O)n1Cc1ccc(-c2ccccc2-c2nn[nH]n2)cc1 [CL-329167]
14 | 10 | CCCCc1nc2ccc(CO)cc2c(=O)n1Cc1ccc(-c2ccccc2-c2nn[nH]n2)cc1
15 | 9 | CCCCc1nc2ccc(C(C)O)cc2c(=O)n1Cc1ccc(-c2ccccc2-c2nn[nH]n2)cc1 (centres undefined)
16 | 1000 | CCCCc1nc2ccc(C(O)C(C)(C)C)cc2c(=O)n1Cc1ccc(-c2ccccc2-c2nn[nH]n2)cc1 (centres undefined)
17 | 10 | CCCCc1nc2ccc(C)cc2c(=O)n1Cc1ccc(-c2ccccc2-c2nn[nH]n2)cc1
18 | 9 | CCCCc1nc2ccc(C(C)(C)O)cc2c(=O)n1Cc1ccc(-c2ccccc2-c2nn[nH]n2)cc1

The compounds below were run against Type-1 angiotensin II receptor (Oryctolagus cuniculus) (UniProt P34976) (assay: Concentration required for inhibition […] against Angiotensin II receptor in rabbit aortic rings).
Sequence of Type-1 angiotensin II receptor (Oryctolagus cuniculus) (P34976 whole entry, looked up): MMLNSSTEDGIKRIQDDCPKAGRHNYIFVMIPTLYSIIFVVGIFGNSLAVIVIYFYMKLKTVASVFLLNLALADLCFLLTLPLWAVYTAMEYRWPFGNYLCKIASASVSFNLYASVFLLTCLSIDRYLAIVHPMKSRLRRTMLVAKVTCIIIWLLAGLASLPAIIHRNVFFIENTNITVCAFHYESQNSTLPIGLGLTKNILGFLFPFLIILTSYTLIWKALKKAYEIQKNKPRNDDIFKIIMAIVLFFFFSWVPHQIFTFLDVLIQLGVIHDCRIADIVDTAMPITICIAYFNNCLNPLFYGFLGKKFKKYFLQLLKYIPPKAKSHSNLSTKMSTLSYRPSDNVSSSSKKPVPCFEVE

Row | pA2 | SMILES
19 | 8.01 | CCCCc1nc2ccc(C(C)(C)OC)cc2c(=O)n1Cc1ccc(-c2ccccc2-c2nn[nH]n2)cc1 [CL-329167]
